Source: US9012642B2, “Pyrrolopyridinone compounds and methods for treating HIV” (ViiV Healthcare UK Limited, priority 2011, dated 2015)
Where two headings read alike, the source gives them in different places.

Tested on: HIV
Experiment: HIV MT4 Assay (antiviral HIV activity in MT-4 cells)
Assay type: cell-based
Experimental: Antiviral HIV activity and cytotoxicity values for compounds of the invention from Table 1 were measured in parallel in the HTLV-1 transformed cell line MT-4 based on the method previously described (Hazen et al., 2007, In vitro antiviral activity of the novel, tyrosyl-based human immunodeficiency virus (HIV) type 1 protease inhibitor brecanavir (GW640385) in combination with other antiretrovirals and against a panel of protease inhibitor-resistant HIV (Hazen et al., “In vitro antiviral activity of the novel, tyrosyl-based human immunodeficiency virus (HIV) type 1 protease inhibitor brecanavir (GW640385) in combination with other antiretrovirals and against a panel of protease inhibitor-resistant HIV”, Antimicrob. Agents Chemother. 2007, 51: 3147-3154; and Pauwels et al., “Sensitive and rapid assay on MT-4 cells for the detection of antiviral compounds against the AIDS virus”, (J. of Virological Methods 1987, 16: 171-185).
Luciferase activity was measured 96 hours later by adding a cell titer glo (Promega, Madison, Wis.). Percent inhibition of cell protection data was plotted relative to no compound control. Under the same condition, cytotoxicity of the compounds was determined using cell titer Glo™ (Promega, Madison, Wis.). IC50s were determined from a 10 point dose response curve using 3-4-fold serial dilution for each compound, which spans a concentration range >1000 fold.
These values are plotted against the molar compound concentrations using the standard four parameter logistic equation: y=((Vmax*x^n)/(K^n+x^n))+Y^2
Y^2=minimum y n=slope factor
Vmax=maximum y x=compound concentration [M]

[1] = Human immunodeficiency virus 1, MT4, HTLV-1 transformed cell line MT-4, luciferase activity measured 96 hours later, Table 3, read-out: HIV MT4 Assay IC50
[2] = MT4, 96 h, read-out: MT4 (IC50)

SMILES | IC50 [1] | IC50 [2]
Cc1c(-c2c(C(OC(C)(C)C)C(=O)O)n(C)c(=O)c3c2ccn3Cc2ccc(F)cc2)ccc2c1CCCO2 (atropisomer, axis not shown; (M)) [Example 41, (S)(M)-2-(tert-butoxy)-2-(1-(4-fluorobenzyl)-6-methyl-4-(5-methylchroman-6-yl)-7-oxo-6,7-dihydro-1H-pyrrolo[2,3-c]pyridin-5-yl)acetic acid] | 10 nM | 10 nM
COc1ccc(Cn2ccc3c(-c4ccc5c(c4C)CCCO5)c(C(OC(C)(C)C)C(=O)O)n(C)c(=O)c32)cc1 (atropisomer, axis not shown; (M)) [Example 53, (S)(M)-2-(tert-butoxy)-2-(1-(4-methoxybenzyl)-6-methyl-4-(5-methylchroman-6-yl)-7-oxo-6,7-dihydro-1H-pyrrolo[2,3-c]pyridin-5-yl)acetic acid] | 10 nM | 10 nM
Cn1c(C(OC(C)(C)C)C(=O)O)c(-c2ccc(Cl)cc2)c2ccn(Cc3ccccc3)c2c1=O (centres unmarked) [Example 1, 2-(1-benzyl-4-(4-chlorophenyl)-6-methyl-7-oxo-6,7-dihydro-1H-pyrrolo[2,3-c]pyridin-5-yl)-2-(tert-butoxy)acetic acid] | 220 nM | 220 nM
Cn1c(C(OC(C)(C)C)C(=O)O)c(-c2ccc(Cl)cc2)c2ccn(Cc3ccc(F)cc3)c2c1=O (centres unmarked) [Example 2, 2-(tert-butoxy)-2-(4-(4-chlorophenyl)-1-(4-fluorobenzyl)-6-methyl-7-oxo-6,7-dihydro-1H-pyrrolo[2,3-c]pyridin-5-yl)acetic acid] | 160 nM | 160 nM
COc1ccc(Cn2ccc3c(-c4ccc(Cl)cc4)c(C(OC(C)(C)C)C(=O)O)n(C)c(=O)c32)cc1 (centres unmarked) [Example 3, 2-(tert-butoxy)-2-(4-(4-chlorophenyl)-1-(4-methoxybenzyl)-6-methyl-7-oxo-6,7-dihydro-1H-pyrrolo[2,3-c]pyridin-5-yl)acetic acid] | 460 nM | 460 nM
COCCn1ccc2c(-c3ccc(Cl)cc3)c(C(OC(C)(C)C)C(=O)O)n(C)c(=O)c21 (centres unmarked) [Example 4, 2-(tert-butoxy)-2-(4-(4-chlorophenyl)-1-(2-methoxyethyl)-6-methyl-7-oxo-6,7-dihydro-1H-pyrrolo[2,3-c]pyridin-5-yl)acetic acid] | 1550 nM | 1550 nM
CC(C)Cn1ccc2c(-c3ccc(Cl)cc3)c(C(OC(C)(C)C)C(=O)O)n(C)c(=O)c21 (centres unmarked) [Example 5, 2-(tert-butoxy)-2-(4-(4-chlorophenyl)-1-isobutyl-6-methyl-7-oxo-6,7-dihydro-1H-pyrrolo[2,3-c]pyridin-5-yl)acetic acid] | 5000 nM | 5000 nM
Cn1c([C@H](OC(C)(C)C)C(=O)O)c(-c2ccc(Cl)cc2)c2ccn(Cc3ccc(F)c(F)c3)c2c1=O [Example 6, (S)-2-(tert-butoxy)-2-(4-(4-chlorophenyl)-1-(3,4-difluorobenzyl)-6-methyl-7-oxo-6,7-dihydro-1H-pyrrolo[2,3-c]pyridin-5-yl)acetic acid] | 140 nM | 140 nM
Cn1c(C(OC(C)(C)C)C(=O)O)c(-c2ccc(Cl)cc2)c2ccn(CCN3CCCCC3)c2c1=O (centres unmarked) [Example 7, 2-(tert-butoxy)-2-(4-(4-chlorophenyl)-6-methyl-7-oxo-1-(2-(piperidin-1-yl)ethyl)-6,7-dihydro-1H-pyrrolo[2,3-c]pyridin-5-yl)acetic acid] | 1000 nM | 1000 nM
Cn1c(C(OC(C)(C)C)C(=O)O)c(-c2ccc(Cl)cc2)c2ccn(Cc3cc(F)ccc3F)c2c1=O (centres unmarked) [Example 8, 2-(tert-butoxy)-2-(4-(4-chlorophenyl)-1-(2,5-difluorobenzyl)-6-methyl-7-oxo-6,7-dihydro-1H-pyrrolo[2,3-c]pyridin-5-yl)acetic acid] | 130 nM | 130 nM
Cn1c(C(OC(C)(C)C)C(=O)O)c(-c2ccc(Cl)cc2)c2ccn(Cc3ccc(C(F)(F)F)o3)c2c1=O (centres unmarked) [Example 9, 2-(tert-butoxy)-2-(4-(4-chlorophenyl)-6-methyl-7-oxo-1-((5-(trifluoromethyl)furan-2-yl)methyl)-6,7-dihydro-1H-pyrrolo[2,3-c]pyridin-5-yl)acetic acid] | 1250 nM | 1250 nM
Cn1c(C(OC(C)(C)C)C(=O)O)c(-c2ccc(Cl)cc2)c2ccn(Cc3cn4ccccc4n3)c2c1=O (centres unmarked) [Example 10, 2-(tert-butoxy)-2-(4-(4-chlorophenyl)-1-(imidazo[1,2-a]pyridin-2-ylmethyl)-6-methyl-7-oxo-6,7-dihydro-1H-pyrrolo[2,3-c]pyridin-5-yl)acetic acid] | 3000 nM | 3000 nM
Cc1nc(Cn2ccc3c(-c4ccc(Cl)cc4)c(C(OC(C)(C)C)C(=O)O)n(C)c(=O)c32)cs1 (centres unmarked) [Example 11, 2-(tert-butoxy)-2-(4-(4-chlorophenyl)-6-methyl-1-((2-methylthiazol-4-yl)methyl)-7-oxo-6,7-dihydro-1H-pyrrolo[2,3-c]pyridin-5-yl)acetic acid] | 310 nM | 310 nM
Cc1ccc(NC(=O)Cn2ccc3c(-c4ccc(Cl)cc4)c(C(OC(C)(C)C)C(=O)O)n(C)c(=O)c32)c(O)c1 (centres unmarked) [Example 12, 2-(tert-butoxy)-2-(4-(4-chlorophenyl)-1-(2-((2-hydroxy-4-methylphenyl)amino)-2-oxoethyl)-6-methyl-7-oxo-6,7-dihydro-1H-pyrrolo[2,3-c]pyridin-5-yl)acetic acid] | 3250 nM | 3250 nM
CC(c1ccccc1)n1ccc2c(-c3ccc(Cl)cc3)c(C(OC(C)(C)C)C(=O)O)n(C)c(=O)c21 (centres unmarked) [Example 13, 2-(tert-butoxy)-2-(4-(4-chlorophenyl)-6-methyl-7-oxo-1-(1-phenylethyl)-6,7-dihydro-1H-pyrrolo[2,3-c]pyridin-5-yl)acetic acid] | 400 nM | 400 nM
Cn1c(C(OC(C)(C)C)C(=O)O)c(-c2ccc(Cl)cc2)c2c(Br)cn(Cc3ccccc3)c2c1=O (centres unmarked) [Example 14, 2-(1-benzyl-3-bromo-4-(4-chlorophenyl)-6-methyl-7-oxo-6,7-dihydro-1H-pyrrolo[2,3-c]pyridin-5-yl)-2-(tert-butoxy)acetic acid] | 750 nM | 750 nM
Cc1cn(Cc2ccccc2)c2c(=O)n(C)c(C(OC(C)(C)C)C(=O)O)c(-c3ccc(Cl)cc3)c12 (centres unmarked) [Example 15, 2-(1-benzyl-4-(4-chlorophenyl)-3,6-dimethyl-7-oxo-6,7-dihydro-1H-pyrrolo[2,3-c]pyridin-5-yl)-2-(tert-butoxy)acetic acid] | 1620 nM | 1620 nM
Cn1c(C(OC(C)(C)C)C(=O)O)c(-c2ccc(Cl)cc2)c2ccn(S(=O)(=O)c3ccc(F)cc3)c2c1=O (centres unmarked) [Example 16, 2-(tert-butoxy)-2-(4-(4-chlorophenyl)-1-((4-fluorophenyl)sulfonyl)-6-methyl-7-oxo-6,7-dihydro-1H-pyrrolo[2,3-c]pyridin-5-yl)acetic acid] | 1800 nM | 1800 nM
Cc1ccc(S(=O)(=O)n2ccc3c(-c4ccc(Cl)cc4)c(C(OC(C)(C)C)C(=O)O)n(C)c(=O)c32)cc1 (centres unmarked) [Example 17, 2-(tert-butoxy)-2-(4-(4-chlorophenyl)-6-methyl-7-oxo-1-tosyl-6,7-dihydro-1H-pyrrolo[2,3-c]pyridin-5-yl)acetic acid] | 1200 nM | 1200 nM
